Here are results for 31 compounds from patent US10787450B2 (BRISTOL-MYERS SQUIBB COMPANY, priority 2016, dated 2020).

Sequence of ROCK2 (O75116 whole entry, species assumed): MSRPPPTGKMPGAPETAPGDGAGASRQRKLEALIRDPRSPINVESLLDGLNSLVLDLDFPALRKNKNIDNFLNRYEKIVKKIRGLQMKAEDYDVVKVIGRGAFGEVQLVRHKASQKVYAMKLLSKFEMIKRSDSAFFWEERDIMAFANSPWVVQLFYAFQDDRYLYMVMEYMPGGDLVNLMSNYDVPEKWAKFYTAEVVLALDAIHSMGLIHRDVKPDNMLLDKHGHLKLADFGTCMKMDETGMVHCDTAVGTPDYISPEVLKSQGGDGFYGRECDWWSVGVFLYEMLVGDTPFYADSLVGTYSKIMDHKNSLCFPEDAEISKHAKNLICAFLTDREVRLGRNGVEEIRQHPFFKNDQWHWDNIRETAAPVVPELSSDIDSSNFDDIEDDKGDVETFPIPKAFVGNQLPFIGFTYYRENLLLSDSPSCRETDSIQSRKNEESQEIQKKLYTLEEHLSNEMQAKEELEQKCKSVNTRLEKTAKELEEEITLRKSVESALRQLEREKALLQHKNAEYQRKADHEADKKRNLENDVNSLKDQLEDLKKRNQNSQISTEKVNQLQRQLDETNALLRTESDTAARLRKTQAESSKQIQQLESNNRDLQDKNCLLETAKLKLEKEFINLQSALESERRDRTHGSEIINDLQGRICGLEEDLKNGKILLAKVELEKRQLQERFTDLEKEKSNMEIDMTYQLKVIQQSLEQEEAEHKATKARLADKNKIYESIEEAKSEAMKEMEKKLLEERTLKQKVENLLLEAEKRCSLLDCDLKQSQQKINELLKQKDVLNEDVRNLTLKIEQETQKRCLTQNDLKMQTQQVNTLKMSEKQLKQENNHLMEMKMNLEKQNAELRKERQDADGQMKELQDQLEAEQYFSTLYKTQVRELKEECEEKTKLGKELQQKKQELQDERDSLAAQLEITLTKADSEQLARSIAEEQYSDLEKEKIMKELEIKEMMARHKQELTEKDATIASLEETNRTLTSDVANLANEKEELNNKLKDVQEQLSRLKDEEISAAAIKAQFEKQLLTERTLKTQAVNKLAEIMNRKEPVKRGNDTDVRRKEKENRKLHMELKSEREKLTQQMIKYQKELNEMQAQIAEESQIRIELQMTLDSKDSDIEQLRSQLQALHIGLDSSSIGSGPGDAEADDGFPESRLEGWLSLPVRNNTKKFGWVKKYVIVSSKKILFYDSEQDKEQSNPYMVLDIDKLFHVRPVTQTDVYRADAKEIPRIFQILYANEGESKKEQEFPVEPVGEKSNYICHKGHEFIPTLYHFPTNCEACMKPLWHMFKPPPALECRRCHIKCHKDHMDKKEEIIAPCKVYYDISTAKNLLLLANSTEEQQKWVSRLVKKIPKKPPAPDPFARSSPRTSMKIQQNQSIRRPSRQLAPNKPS

This assay has as its target ROCK2 (Homo sapiens (Human), UniProt O75116). The experiment in a line: ROCK2 kinase inhibition assay (FITC peptide substrate, LABCHIP 3000 Reader). To be noted: 5 μM ATP, 1.5 μM peptide substrate. It is filed as biochemical. In outline:
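IC50 derived by curve fitting of dose-response inhibition, read as separation of phosphorylated from unphosphorylated FITC peptide (1.5 μM) after EDTA stop. Buffer: HEPES pH 7.5, MgCl2, Brij-35, DTT; ATP 5 μM; final DMSO <2%; reaction initiated by Rho kinase addition.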
Turning to `COc1cccc(CN2C(=O)N(c3ccc(-c4cn[nH]c4)cc3)CC23CCN(C(=O)C(C)(C)O)CC3)c1` [Example 192, 3-(4-(1H-pyrazol-4-yl)phenyl)-8-(2-hydroxy-2-methylpropanoyl)-1-(3-methoxybenzyl)-1,3,8-triazaspiro[4.5]decan-2-one], the IC50 is less than 3 nM.
The compound `COc1cc(CN2C(=O)N(c3ccc(-c4cn[nH]c4)cc3)CC23CC3)ccc1F` [Example 6, 6-(4-(1H-pyrazol-4-yl)phenyl)-4-(4-fluoro-3-methoxybenzyl)-4,6-diazaspiro[2.4]heptan-5-one] registered an IC50 of less than 3 nM.
Then `COc1cccc(CN2C(=O)N(c3ccc(-c4cn[nH]c4)cc3)CC23CCN(C(=O)C(C)O)CC3)c1` (stereo not shown) [Example 191, 3-(4-(1H-pyrazol-4-yl)phenyl)-8-(2-hydroxypropanoyl)-1-(3-methoxybenzyl)-1,3,8-triazaspiro[4.5]decan-2-one], with less than 3 nM; and `CCc1nc(N2CC3(CCN(C(C)=O)CC3)N(Cc3cccc(OC)c3)C2=O)ccc1-c1cn[nH]c1` [Example 88, 8-acetyl-3-(6-ethyl-5-(1H-pyrazol-4-yl)pyridin-2-yl)-1-(3-methoxybenzyl)-1,3,8-triazaspiro[4.5]decan-2-one], with less than 3 nM; and `O=C1N(c2ccc(-c3cn[nH]c3)cc2)CC2(CCOCC2)N1Cc1cccc(OCC2CC2)c1` [Example 11, 3-(4-(1H-pyrazol-4-yl)phenyl)-1-(3-(cyclopropylmethoxy)benzyl)-8-oxa-1,3-diazaspiro[4.5]decan-2-one], with 3 to 30 nM.
Then `CCCOC(=O)N1CCC2(CC1)CN(c1ccc(-c3cn[nH]c3)cc1)C(=O)N2Cc1cccc(OC)c1` [Example 100, propyl 3-(4-(1H-pyrazol-4-yl)phenyl)-1-(3-methoxybenzyl)-2-oxo-1,3,8-triazaspiro[4.5]decane-8-carboxylate], with less than 3 nM; and `COc1cccc(NC2C(=O)N(c3ccc(-c4cn[nH]c4)cc3)CC23CCN(CCO)CC3)c1` (stereo not shown) [Example 252, 2-(4-(1H-pyrazol-4-yl)phenyl)-8-(2-hydroxy-ethyl)-4-((3-methoxy-phenyl)amino)-2,8-diazaspiro [4.5]decan-3-one], with 250 to 3000 nM.
`CCc1nc(N2CC3(CCN(C(=O)CC(C)C)CC3)N(Cc3cccc(OC)c3)C2=O)ccc1-c1cn[nH]c1` [Example 200, 3-(6-ethyl-5-(1H-pyrazol-4-yl)pyridin-2-yl)-1-(3-methoxybenzyl)-8-(3-methylbutanoyl)-1,3,8-triazaspiro[4.5]decan-2-one]: the IC50 is less than 3 nM.
The compound `COc1cccc(CN2C(=O)N(c3ccc(-c4cn[nH]c4)cc3)CC23CCN(CC2CCOC2)CC3)c1` (stereo not shown) [Example 114, 3-(4-(1H-pyrazol-4-yl)phenyl)-1-(3-methoxybenzyl)-8-((tetrahydrofuran-3-yl)methyl)-1,3,8-triazaspiro[4.5]decan-2-one] displayed an IC50 of less than 3 nM.
To `COc1cccc(CN2C(=O)N(c3ccc(-c4cn[nH]c4)cc3)CC23CCN(CC(C)C)CC3)c1` [Example 124, 3-(4-(1H-pyrazol-4-yl)phenyl)-8-isobutyl-1-(3-methoxybenzyl)-1,3,8-triazaspiro[4.5]decan-2-one] belongs less than 3 nM; to `CCc1nc(N2CC3(CCN(CC(C)(C)O)CC3)N(Cc3cccc(OC)c3)C2=O)ccc1-c1cn[nH]c1` [Example 152, 3-(6-ethyl-5-(1H-pyrazol-4-yl)pyridin-2-yl)-8-(2-hydroxy-2-methylpropyl)-1-(3-methoxybenzyl)-1,3,8-triazaspiro[4.5]decan-2-one], less than 3 nM.
Consider `COc1cccc(CN2C(=O)N(c3ncc(-c4cn[nH]c4)c(OC)n3)CC23CCN(C(=O)C(C)(C)O)CC3)c1` [Example 212, 8-(2-hydroxy-2-methylpropanoyl)-3-(4-methoxy-5-(1H-pyrazol-4-yl)pyrimidin-2-yl)-1-(3-methoxybenzyl)-1,3,8-triazaspiro[4.5]decan-2-one], for which the IC50 lay in the range of 3 to 30 nM.
Consider `COc1cccc(NC2C(=O)N(c3ccc(-c4cn[nH]c4)cc3)CC23CN(C(=O)C(C)(C)O)C3)c1` (stereo not shown) [Example 246, 6-(4-(1H-pyrazol-4-yl)phenyl)-2-(2-hydroxy-2-methylpro-panoyl)-8-((3-methoxy-phenyl)amino)-2,6-diazaspiro [3.4]octan-7-one], for which the IC50 fell in the range of 250 to 3000 nM.
Then `COc1cc(F)cc(CN2C(=O)N(c3ccc(-c4cn[nH]c4)cc3)CC23CCN(CCO)CC3)c1` [Example 144, 3-(4-(1H-pyrazol-4-yl)phenyl)-1-(3-fluoro-5-methoxybenzyl)-8-(2-hydroxyethyl)-1,3,8-triazaspiro[4.5]decan-2-one], with less than 3 nM; and `COc1cccc(CN2C(=O)N(c3ccc(-c4cn[nH]c4)cc3)CC23CC3)c1` [Example 1, 6-(4-(1H-pyrazol-4-yl)phenyl)-4-(3-methoxybenzyl)-4,6-diazaspiro[2.4]heptan-5-one], with less than 3 nM.
To `CCc1nc(N2CC3(CCN(CCO)CC3)N(Cc3cc(F)cc(OC)c3)C2=O)ccc1-c1cn[nH]c1` [Example 153, 3-(6-ethyl-5-(1H-pyrazol-4-yl)pyridin-2-yl)-1-(3-fluoro-5-methoxybenzyl)-8-(2-hydroxyethyl)-1,3,8-triazaspiro[4.5]decan-2-one] belongs less than 3 nM; to `O=C1N(c2ccc(-c3cn[nH]c3)cc2)CC2(CCNCC2)N1Cc1cccc(O)c1` [Example 62, 3-(4-(1H-pyrazol-4-yl)phenyl)-1-(3-hydroxybenzyl)-1,3,8-triazaspiro[4.5]decan-2-one], less than 3 nM.
As to `O=C(NCC1CC1)c1cccc(CN2C(=O)N(c3ccc(-c4cn[nH]c4)cc3)CC23CCOCC3)c1` [Example 37, 3-((3-(4-(1H-pyrazol-4-yl)phenyl)-2-oxo-8-oxa-1,3-diazaspiro[4.5]decan-1-yl)methyl)-N-(cyclopropylmethyl)benzamide], the IC50 is less than 3 nM.
Then `CCOC(=O)N1CCC2(CC1)CN(c1ccc(-c3cn[nH]c3)c(CC)n1)C(=O)N2Cc1cc(F)cc(OC)c1` [Example 106, ethyl 3-(6-ethyl-5-(1H-pyrazol-4-yl)pyridin-2-yl)-1-(3-fluoro-5-methoxybenzyl)-2-oxo-1,3,8-triazaspiro[4.5]decane-8-carboxylate], with 3 to 30 nM.
In turn, `COc1cccc(CN2C(=O)N(c3ccc(-c4cn[nH]c4)c(C)n3)CC23CCNCC3)c1` [Example 74, 1-(3-methoxybenzyl)-3-(6-methyl-5-(1H-pyrazol-4-yl)pyridin-2-yl)-1,3,8-triazaspiro[4.5]decan-2-one] showed an IC50 of 3 to 30 nM.
With `COc1cc(F)cc(CN2C(=O)N(c3ccc(-c4cn[nH]c4)cc3)CC23CCOCC3)c1` [Example 10, 3-(4-(1H-pyrazol-4-yl)phenyl)-1-(3-fluoro-5-methoxybenzyl)-8-oxa-1,3-diazaspiro[4.5]decan-2-one], the concentration for half-maximal inhibition (IC50) was less than 3 nM.
In the case of `COc1cccc(CN2C(=O)N(c3ccc(-c4cn[nH]c4)cc3)CC23CCN(C(N)=O)CC3)c1` [Example 92, 3-(4-(1H-pyrazol-4-yl)phenyl)-1-(3-methoxybenzyl)-2-oxo-1,3,8-triazaspiro[4.5]decane-8-carboxamide], the IC50 is less than 3 nM.
To `CC(=O)N1CCC2(CC1)CN(c1ccc(-c3cn[nH]c3)cc1)C(=O)N2Cc1cccc(F)c1F` [Example 77, 3-(4-(1H-pyrazol-4-yl)phenyl)-8-acetyl-1-(2,3-difluorobenzyl)-1,3,8-triazaspiro[4.5]decan-2-one] belongs 30 to 250 nM; to `COc1cccc(CN2C(=O)N(c3ccc(-c4cn[nH]c4)cn3)CC23CCN(C(=O)C(C)(C)O)CC3)c1` [Example 199, 3-(5-(1H-pyrazol-4-yl)pyridin-2-yl)-8-(2-hydroxy-2-methylpropanoyl)-1-(3-methoxybenzyl)-1,3,8-triazaspiro[4.5]decan-2-one], 3 to 30 nM.
Then `COCCOC(=O)N1CCC2(CC1)CN(c1ccc(-c3cn[nH]c3)cc1)C(=O)N2Cc1cccc(OC)c1` [Example 98, 2-methoxyethyl 3-(4-(1H-pyrazol-4-yl)phenyl)-1-(3-methoxybenzyl)-2-oxo-1,3,8-triazaspiro[4.5]decane-8-carboxylate], with less than 3 nM.
Then `COc1cccc(CN2C(=O)N(c3ccc(-c4cn[nH]c4)cc3)CC23CCN(C(C)=O)CC3)c1` [Example 76, 3-(4-(1H-pyrazol-4-yl)phenyl)-8-acetyl-1-(3-methoxybenzyl)-1,3,8-triazaspiro[4.5]decan-2-one], with less than 3 nM; and `COc1cccc(CN2C(=O)N(c3ccc(-c4cn[nH]c4)cc3)CC23CCN(C(=O)C2CCC(F)(F)CC2)CC3)c1` [Example 171, 3-(4-(1H-pyrazol-4-yl)phenyl)-8-(4,4-difluorocyclohexanecarbonyl)-1-(3-methoxybenzyl)-1,3,8-triazaspiro[4.5]decan-2-one], with less than 3 nM.
`COc1cccc(CN2C(=O)N(c3ccc(-c4cn[nH]c4)c(OC)n3)CC23CCN(C(=O)CO)CC3)c1` [Example 220, 8-(2-hydroxyacetyl)-3-(6-methoxy-5-(1H-pyrazol-4-yl)pyridin-2-yl)-1-(3-methoxybenzyl)-1,3,8-triazaspiro[4.5]decan-2-one] had an IC50 of less than 3 nM.
Take `Cc1c(F)cccc1CN1C(=O)N(c2ccc(-c3cn[nH]c3)cc2)CC12CCN(CCO)CC2` [Example 143, 3-(4-(1H-pyrazol-4-yl)phenyl)-1-(3-fluoro-2-methylbenzyl)-8-(2-hydroxyethyl)-1,3,8-triazaspiro[4.5]decan-2-one]: the IC50 was less than 3 nM.
On to `COc1cccc(CN2C(=O)N(c3ccc(-c4cn[nH]c4)cc3)CC23CCN(C(=O)OC(C)(C)C)CC3)c1` [Example 48, tert-butyl 3-(4-(1H-pyrazol-4-yl)phenyl)-1-(3-methoxybenzyl)-2-oxo-1,3,8-triazaspiro[4.5]decane-8-carboxylate], for which the IC50 fell in the range of 3 to 30 nM.
Then `CNC(=O)N1CCC2(CC1)CN(c1ccc(-c3cn[nH]c3)cc1)C(=O)N2Cc1cccc(OC)c1` [Example 91, 3-(4-(1H-pyrazol-4-yl)phenyl)-1-(3-methoxybenzyl)-N-methyl-2-oxo-1,3,8-triazaspiro[4.5]decane-8-carboxamide], with less than 3 nM.

Usually IC50 stands for the concentration that inhibits the measured activity by half. Read a high IC50 as a need for much substance.
